# Laboratory results taken from publication PMC11078746 (Nature, 2024).
# “And” between values parts separate entries of the source, which are not always exact repeats. Equal values may be shown once.
# System: SW48 xenografts
# Assay: SW48 cell-derived xenograft efficacy, HRO761 orally once daily
# Type: in vivo, mouse
# Experimental: All animal studies were conducted in accordance with ethics and procedures covered by permit BS-2275 and BS-1975 issued by the Kantonales Veterinäramt Basel-Stadt and in strict adherence to guidelines of the Eidgenössisches Tierschutzgesetz and the Eidgenössische Tierschutzverordnung, Switzerland. All animal studies were approved by the internal ethics committee. All animals had access to food and water ad libitum and were identified with transponders. They were housed in a specific-pathogen-free facility in IVC racks under a 12 h–12 h light–dark cycle. To establish cell-line-derived xenograft models, 6–7-week-old female athymic nude (Crl:NU(NCr)-Foxn1^nu) or SCID-BEIGE (CB17.Cg-PrkdcscidLystbg-J/Crl) mice from Charles River were engrafted subcutaneously with 5 million tumour cells in HBSS (H6648, Sigma-Aldrich). For SNU-407, Lovo, IM95, RL95.2, Ishikawa and IGROV-1, the cells were concentrated in 50% Matrigel (354234, Corning). Patient-derived xenografts were induced and expanded by transplantation as previously described. […] For the efficacy experiment, mice were randomized into groups (n = 5–6) for a mean tumour size of 100–150 mm^3. […] Blood samples were collected on day 7 and 91. […] Tumour responses are reported with the measures of tumour volumes from the treatment start. […] Animals were randomized (n = 3) and tumour samples were collected at 0, 1, 4, 8 and 24 h on the first day and then collected 4 h after the last treatment on day 3, 8, 10, 14 (including a 24 h timepoint), 17 and 21. Tumours were excised, weighed, either frozen in liquid nitrogen and cryogenic dry pulverized with the CryoPrep system (model CP-02, Covaris) or processed to FFPE after fixation. […] On day 12, blood samples were collected for PK analysis. On the last day (3 h after the last treatment), tumours were excised, weighed, frozen in liquid nitrogen and cryogenic dry pulverized for PD analysis.
compound,measurement,setting,value
CCc1c(N2CCN(C(=O)c3ncnc(C)c3O)CC2)c(=O)n2nc(C3=CCOCC3)nc2n1CC(=O)Nc1ccc(C(F)(F)F)cc1Cl [HRO761],max Reg (%) or max T/C (%),10 mg/kg,94.00%
same,tumour response,"20 mg per kg, once daily oral",tumour stasis
same,max Reg (%) or max T/C (%),20 mg/kg,6.00%
same,max Reg (%) or max T/C (%),30 mg/kg,-69.00%
same,max Reg (%) or max T/C (%),40 mg/kg,-75.00%
same,max Reg (%) or max T/C (%),60 mg/kg,-85.00%
same,max Reg (%) or max T/C (%),120 mg/kg,-89.00%
same,Mean TVol,"HRO761 20mg/kg, day 0 post 1st dose",148.57 mm3
same,Mean TVol,"HRO761 20mg/kg, day 3 post 1st dose",172.19 mm3
same,Mean TVol,"HRO761 20mg/kg, day 7 post 1st dose",214.06 mm3
same,Mean TVol,"HRO761 20mg/kg, day 10 post 1st dose",199.01 mm3
same,Mean TVol,"HRO761 20mg/kg, day 14 post 1st dose",193.54 mm3
same,"TVol, individual mouse","HRO761 20mg/kg, day 14 post 1st dose, 20 mg/kg",183.48 mm3 and 119.53 mm3 and 120.69 mm3 and 296.11 mm3 and 247.89 mm3
same,Mean TVol,"HRO761 20mg/kg, day 17 post 1st dose",171.07 mm3
same,"TVol, individual mouse","HRO761 20mg/kg, day 17 post 1st dose, 20 mg/kg",183.94 mm3 and 118.26 mm3 and 128.1 mm3 and 182.42 mm3 and 242.62 mm3
same,Mean TVol,"HRO761 20mg/kg, day 21 post 1st dose",210.51 mm3
same,"TVol, individual mouse","HRO761 20mg/kg, day 21 post 1st dose, 20 mg/kg",237.44 mm3 and 188.88 mm3 and 167.52 mm3 and 218.78 mm3 and 239.95 mm3
same,Mean TVol,"HRO761 20mg/kg, day 24 post 1st dose",217.13 mm3
same,"TVol, individual mouse","HRO761 20mg/kg, day 24 post 1st dose, 20 mg/kg",213.9 mm3 and 149.74 mm3 and 186.94 mm3 and 199.91 mm3 and 335.14 mm3
same,Mean TVol,"HRO761 20mg/kg, day 28 post 1st dose",270.81 mm3
same,"TVol, individual mouse","HRO761 20mg/kg, day 28 post 1st dose, 20 mg/kg",244.97 mm3 and 189.99 mm3 and 254.46 mm3 and 269.33 mm3 and 395.3 mm3
same,Mean TVol,"HRO761 20mg/kg, day 31 post 1st dose",317.23 mm3
same,Mean TVol,"HRO761 20mg/kg, day 35 post 1st dose",380.57 mm3
same,Mean TVol,"HRO761 20mg/kg, day 38 post 1st dose",438.75 mm3
same,Mean TVol,"HRO761 20mg/kg, day 42 post 1st dose",626.99 mm3
same,Mean TVol,"HRO761 20mg/kg, day 45 post 1st dose",658.99 mm3
same,Mean TVol,"HRO761 40mg/kg, day 0 post 1st dose",148.59 mm3
same,Mean TVol,"HRO761 40mg/kg, day 3 post 1st dose",162.25 mm3
same,Mean TVol,"HRO761 40mg/kg, day 7 post 1st dose",181.10 mm3
same,Mean TVol,"HRO761 40mg/kg, day 10 post 1st dose",146.66 mm3
same,Mean TVol,"HRO761 40mg/kg, day 14 post 1st dose",133.58 mm3
same,"TVol, individual mouse","HRO761 40mg/kg, day 14 post 1st dose, 40 mg/kg",137.47 mm3 and 92.79 mm3 and 146.32 mm3 and 135.46 mm3 and 155.86 mm3
same,Mean TVol,"HRO761 40mg/kg, day 17 post 1st dose",95.84 mm3
same,"TVol, individual mouse","HRO761 40mg/kg, day 17 post 1st dose, 40 mg/kg",84.05 mm3 and 68.24 mm3 and 117.68 mm3 and 91.67 mm3 and 117.57 mm3
same,Mean TVol,"HRO761 40mg/kg, day 21 post 1st dose",84.88 mm3
same,"TVol, individual mouse","HRO761 40mg/kg, day 21 post 1st dose, 40 mg/kg",65.27 mm3 and 62.26 mm3 and 114.98 mm3 and 87.79 mm3 and 94.1 mm3
same,Mean TVol,"HRO761 40mg/kg, day 24 post 1st dose",52.61 mm3
same,"TVol, individual mouse","HRO761 40mg/kg, day 24 post 1st dose, 40 mg/kg",40.05 mm3 and 34.46 mm3 and 63.81 mm3 and 55.22 mm3 and 69.51 mm3
same,Mean TVol,"HRO761 40mg/kg, day 28 post 1st dose",44.44 mm3
same,"TVol, individual mouse","HRO761 40mg/kg, day 28 post 1st dose, 40 mg/kg",41.72 mm3 and 27.23 mm3 and 46.41 mm3 and 45.86 mm3 and 60.97 mm3
same,Mean TVol,"HRO761 40mg/kg, day 31 post 1st dose",37.24 mm3
same,Mean TVol,"HRO761 40mg/kg, day 35 post 1st dose",32.88 mm3
same,Mean TVol,"HRO761 40mg/kg, day 38 post 1st dose",33.30 mm3
same,Mean TVol,"HRO761 40mg/kg, day 42 post 1st dose",36.90 mm3
same,Mean TVol,"HRO761 40mg/kg, day 45 post 1st dose",34.79 mm3
same,Mean TVol,"HRO761 40mg/kg, day 49 post 1st dose",37.27 mm3
same,Mean TVol,"HRO761 40mg/kg, day 52 post 1st dose",35.78 mm3
same,Mean TVol,"HRO761 40mg/kg, day 56 post 1st dose",46.42 mm3
same,Mean TVol,"HRO761 40mg/kg, day 59 post 1st dose",55.91 mm3
same,Mean TVol,"HRO761 40mg/kg, day 63 post 1st dose",77.49 mm3
same,Mean TVol,"HRO761 40mg/kg, day 66 post 1st dose",84.81 mm3
same,Mean TVol,"HRO761 40mg/kg, day 70 post 1st dose",105.06 mm3
same,Mean TVol,"HRO761 40mg/kg, day 73 post 1st dose",118.43 mm3
same,Mean TVol,"HRO761 40mg/kg, day 76 post 1st dose",139.13 mm3
same,Mean TVol,"HRO761 40mg/kg, day 79 post 1st dose",184.71 mm3
same,Mean TVol,"HRO761 40mg/kg, day 83 post 1st dose",215.37 mm3
same,Mean TVol,"HRO761 40mg/kg, day 86 post 1st dose",261.40 mm3
same,Mean TVol,"HRO761 40mg/kg, day 90 post 1st dose",329.03 mm3
same,Mean TVol,"HRO761 40mg/kg, day 92 post 1st dose",334.15 mm3
same,Mean TVol,"HRO761 60mg/kg, day 0 post 1st dose",148.59 mm3
same,Mean TVol,"HRO761 60mg/kg, day 3 post 1st dose",184.38 mm3
same,Mean TVol,"HRO761 60mg/kg, day 7 post 1st dose",168.35 mm3
same,Mean TVol,"HRO761 60mg/kg, day 10 post 1st dose",139.22 mm3
same,Mean TVol,"HRO761 60mg/kg, day 14 post 1st dose",143.74 mm3
same,"TVol, individual mouse","HRO761 60mg/kg, day 14 post 1st dose, 60 mg/kg",168.86 mm3 and 112.65 mm3 and 68.51 mm3 and 225.46 mm3 and 143.2 mm3
